Active and inactive are the calls of the source.
Legend:
[1] = viability of uninfected HEp-2 cells – cell-based, HTS, cytotoxicity control for RSV inhibitor project, dose response (AID 2410); assay type: functional; details: human respiratory syncytial virus
[2] = antiviral protection against BTV-induced cell death – arbovirus, BSR cells, confirmation (AID 1250); assay type: functional;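 note: protection from viral cytopathic effect measured as cell viability by ATP luminescence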
[3] = target: Long-chain-fatty-acid--AMP ligase FadD28 (Mycobacterium tuberculosis, UniProt P9WQ59); experiment: Fluorescence polarization aasay to screen for inhibitors that compete for the binding of FadD28 to a bisubstrate Measured in Biochemical System Using Plate Reader - 2147-01_Inhibitor_Dose_CherryPick_Activity.; assay type: functional, Mycobacterium tuberculosis H37Rv
cells [4] = experiment: cells
NS3 = NS3 (Hepatitis C virus, UniProt A3EZJ3); experiment: PubChem AID 2173; parameters: species or system Hepacivirus hominis
Mucolipin-3 = Mucolipin-3 (Homo sapiens, UniProt Q8TDD5); experiment: Dose response cell-based high-throughput screening assay for agonists of the transient receptor potential channel ML3 (TRPML3). [Related pubchem assays: 1526, 1424, 1448 ]; assay type: functional
Ion channel NompC = Ion channel NompC (Danio rerio, UniProt Q7T1G6); experiment: Fluorescence counterscreen assay for TRPML3 agonists: dose response cell-based high-throughput screening assay to identify agonists of the transient receptor potential channel N1 (TRPN1). [Related pubchem assays: 1526, 1424, 1448 ]; assay type: functional
HeLa = experiment: Cytotoxicity counterscreen assay for transcriptional activators of heat shock protein 70 (Hsp70). [Related pubchem assays: 1203, 1252 ]; assay type: functional; details: Homo sapiens
[5] = microbe, parasite or virus in culture; assay type: functional; details: Mycobacterium tuberculosis
[6] = viability of PTEN-deleted HCT116 cells – cell-based, HCT116 PTEN knockout, dose response (AID 1047); assay type: functional;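 note: HCT116 colon tumor cells with PTEN knocked out; cells exposed to compound for 60 hours before readout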
[7] = viability of HCT116 lacking mutant beta-catenin – cell-based, human colon tumor, dose response (AID 1045); assay type: functional;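 note: HCT116 colon tumor cells with beta catenin knocked out; cells exposed to compound for 60 hours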
[8] = THP-1 cell cytotoxicity, dose response, cytotoxicity control for non-replicating M. tuberculosis project (AID 489025); assay type: functional
[9] = Vero E6 cell cytotoxicity, dose response, cytotoxicity control for non-replicating M. tuberculosis project, secondary assay (AID 492998); assay type: functional, VeroE6; details: Vero C1008
cells [10] = assay type: functional
CHO = CHO cell viability loss, potency – luminescence, cytotoxicity control for TLR9-MyD88 binding inhibitor project, dose response (AID 588339); assay type: functional, cell-based, hamster; details: Cricetulus griseus;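 note: CHO cells stably coexpressing TLR9 and MyD88 fusions from primary screen; compound exposure lasted 48 hours before viability readout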
Beta Lactamase = Beta Lactamase (Pseudomonas aeruginosa, UniProt Q932Y6); experiment: BLA reporter interference, concentration series – BLA reporter cells, FRET fluorescence, artefact control for TLR9-MyD88 binding inhibitor project, dose response (AID 588341); assay type: cell-based;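 note: cell based assay in CHO-K1 cells stably expressing beta-lactamase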
INS1 = experiment: INS-1E survival protection against cytokine death – cell-based, luminescence, retest, dose response (AID 449756); assay type: functional; details: Rattus norvegicus;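 note: cell death triggered by IL-1 beta plus TNF-alpha plus IFN-gamma mixture; protective hits raise ATP signal compared with cytokine alone wells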
[11] = Fluorescence-based cell-based high throughput dose response assay for inhibitors of the interaction of nucleotide-binding oligomerization domain containing 2 (NOD2) and the receptor-interacting serine-threonine kinase 2 (RIPK2).; assay type: functional; details: Homo sapiens
[12] = target: Photoreceptor-specific nuclear receptor (Homo sapiens, UniProt Q9Y5X4); assay type: functional, cell-based;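 note: CHO-S cells with Gal4-NCOR and VP16-NR2E3 two-hybrid luciferase reporter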
Paired box protein Pax-8 = Paired box protein Pax-8 (Homo sapiens, UniProt Q06710); experiment: PAX8 transcriptional activity inhibition in RMG-I – RMG-I cells, luciferase, cherry-pick, dose response (AID 687027); assay type: functional, cell-based;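 note: luciferase reporter driven by Pax8 target thyroperoxidase promoter measured by SteadyGlo luminescence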
[13] = general cell-killing toxicity readout – plate reader, dry powder samples, cytotoxicity control for PAX8 inhibitor project, dose response (AID 743021); assay type: functional, cell-based
Bcl-2-like protein 10 = Bcl-2-like protein 10 (Homo sapiens, UniProt Q9HD36); experiment: Concentration-response of Bcl-B inhibitors by biochemical FP with TR3 (AID 1243); assay type: functional
[14] = target: T1, Neuropeptide Y receptor type 1 (Homo sapiens, UniProt P25929); assay type: functional;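 note: HEK293 cells with a CNG channel challenged with NPY then isoproterenol; potency as antagonist that reverses NPY suppression of cAMP signal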
T1 sequence (P25929 whole entry): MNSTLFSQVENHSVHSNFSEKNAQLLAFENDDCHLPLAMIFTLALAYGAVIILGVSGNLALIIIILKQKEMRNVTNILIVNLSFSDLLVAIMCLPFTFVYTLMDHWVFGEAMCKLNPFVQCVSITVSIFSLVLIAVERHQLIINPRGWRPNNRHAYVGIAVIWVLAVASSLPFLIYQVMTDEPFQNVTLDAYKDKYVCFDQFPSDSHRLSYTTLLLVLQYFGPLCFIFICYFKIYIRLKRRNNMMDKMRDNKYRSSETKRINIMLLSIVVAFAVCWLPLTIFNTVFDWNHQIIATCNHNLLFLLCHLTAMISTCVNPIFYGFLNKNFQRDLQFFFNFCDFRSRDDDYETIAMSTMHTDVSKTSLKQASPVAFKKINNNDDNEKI

[15] = target: T2, Neuropeptide Y receptor type 2 (Homo sapiens, UniProt P49146); assay type: functional, cell-based;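 note: HEK293 cells expressing the receptor and a CNG channel; stimulus was NPY near EC95 followed by isoproterenol to raise cAMP; antagonist potency measured as restoring cAMP signal that NPY suppresses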
T2 sequence (P49146 whole entry): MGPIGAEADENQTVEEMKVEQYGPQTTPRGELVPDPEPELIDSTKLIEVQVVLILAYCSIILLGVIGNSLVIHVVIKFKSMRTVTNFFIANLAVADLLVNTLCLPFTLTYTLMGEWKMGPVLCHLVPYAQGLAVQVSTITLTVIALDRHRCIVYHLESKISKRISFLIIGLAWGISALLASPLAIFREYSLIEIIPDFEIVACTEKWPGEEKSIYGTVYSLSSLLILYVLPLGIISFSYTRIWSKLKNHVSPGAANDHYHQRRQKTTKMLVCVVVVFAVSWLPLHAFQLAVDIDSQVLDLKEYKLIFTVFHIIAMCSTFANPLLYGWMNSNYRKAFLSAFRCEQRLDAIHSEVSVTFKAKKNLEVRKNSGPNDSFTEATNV

[16] = tested on: Streptococcus sp. 'group A'; experiment: Streptococcus pyogenes SK(-)GAS viability under kanamycin – luminescence, BacTiterGlo, confirmation, counter-screen for streptokinase expression inhibitor project, dose response (AID 1900); assay type: functional, organism-based
Streptokinase A = target: T3, Streptokinase A (Streptococcus pyogenes serotype M1, UniProt P10520); experiment: viability-normalized secreted streptokinase activity reduction – plasminogen activation absorbance, OD405, dose response (AID 1914); assay type: functional, Streptococcus pyogenes M1 GAS;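 note: secreted streptokinase activity via plasminogen activation per viability signal from cell pellet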
T3 sequence (P10520 whole entry): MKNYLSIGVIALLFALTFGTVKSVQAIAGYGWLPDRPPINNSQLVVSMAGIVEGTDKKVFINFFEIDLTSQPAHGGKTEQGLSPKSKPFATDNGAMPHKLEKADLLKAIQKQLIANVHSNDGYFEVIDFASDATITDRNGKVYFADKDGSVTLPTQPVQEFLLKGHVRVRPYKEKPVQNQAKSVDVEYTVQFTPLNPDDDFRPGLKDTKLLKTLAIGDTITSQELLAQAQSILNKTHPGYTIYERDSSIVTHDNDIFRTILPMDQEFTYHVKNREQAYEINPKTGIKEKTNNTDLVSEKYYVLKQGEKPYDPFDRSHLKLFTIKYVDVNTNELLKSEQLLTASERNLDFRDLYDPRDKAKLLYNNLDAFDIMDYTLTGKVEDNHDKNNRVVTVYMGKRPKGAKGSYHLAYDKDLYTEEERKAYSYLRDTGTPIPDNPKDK

Estrogen receptor = target: T4, Estrogen receptor (Homo sapiens, UniProt P03372); experiment: ERα coactivator recruitment enhancers – biochemical, TR-FRET, ERα LBD, dose response (AID 737)
T4 sequence (P03372 whole entry): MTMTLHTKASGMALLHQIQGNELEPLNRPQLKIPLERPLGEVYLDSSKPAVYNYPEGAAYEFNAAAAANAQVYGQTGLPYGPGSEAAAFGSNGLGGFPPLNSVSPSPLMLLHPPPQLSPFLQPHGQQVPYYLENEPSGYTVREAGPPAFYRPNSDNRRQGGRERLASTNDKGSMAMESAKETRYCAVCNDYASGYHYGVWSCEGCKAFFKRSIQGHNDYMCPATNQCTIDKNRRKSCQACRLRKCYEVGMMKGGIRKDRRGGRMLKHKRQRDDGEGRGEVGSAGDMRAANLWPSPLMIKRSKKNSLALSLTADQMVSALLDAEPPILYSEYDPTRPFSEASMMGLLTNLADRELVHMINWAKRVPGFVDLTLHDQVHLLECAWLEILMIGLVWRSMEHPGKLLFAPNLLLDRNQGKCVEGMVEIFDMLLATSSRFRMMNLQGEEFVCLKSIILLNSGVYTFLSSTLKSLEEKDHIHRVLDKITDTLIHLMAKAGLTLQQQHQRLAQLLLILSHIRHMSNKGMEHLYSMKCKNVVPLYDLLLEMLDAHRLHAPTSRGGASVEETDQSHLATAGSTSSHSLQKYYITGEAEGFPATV

Streptococcus = experiment: GAS UMAA2166 growth inhibition – luminescence, BacTiterGlo, counter-screen for streptokinase expression inhibitor project, dose response (AID 1915); assay type: functional, organism-based;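 note: potency for reduction of bacterial viability or growth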

Bcl-2-like protein 10, sequence (Q9HD36 whole entry): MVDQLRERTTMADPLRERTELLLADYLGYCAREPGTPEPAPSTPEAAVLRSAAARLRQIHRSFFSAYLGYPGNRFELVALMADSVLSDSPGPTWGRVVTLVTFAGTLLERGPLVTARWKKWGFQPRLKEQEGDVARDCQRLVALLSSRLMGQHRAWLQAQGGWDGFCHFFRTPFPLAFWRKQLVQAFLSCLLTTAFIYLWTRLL
Photoreceptor-specific nuclear receptor, sequence (Q9Y5X4 whole entry, the tested form may be a part): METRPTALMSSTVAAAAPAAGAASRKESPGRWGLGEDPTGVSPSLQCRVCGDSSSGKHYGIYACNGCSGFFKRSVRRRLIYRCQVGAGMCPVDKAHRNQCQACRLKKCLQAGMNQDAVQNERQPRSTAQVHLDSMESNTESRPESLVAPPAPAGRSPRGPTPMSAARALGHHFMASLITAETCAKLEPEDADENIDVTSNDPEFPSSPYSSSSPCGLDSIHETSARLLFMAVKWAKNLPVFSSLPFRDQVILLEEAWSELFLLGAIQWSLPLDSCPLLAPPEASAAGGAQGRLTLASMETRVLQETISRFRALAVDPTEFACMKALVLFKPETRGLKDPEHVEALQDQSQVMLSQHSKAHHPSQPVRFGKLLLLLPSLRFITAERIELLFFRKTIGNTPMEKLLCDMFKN
Mucolipin-3, sequence (Q8TDD5 whole entry): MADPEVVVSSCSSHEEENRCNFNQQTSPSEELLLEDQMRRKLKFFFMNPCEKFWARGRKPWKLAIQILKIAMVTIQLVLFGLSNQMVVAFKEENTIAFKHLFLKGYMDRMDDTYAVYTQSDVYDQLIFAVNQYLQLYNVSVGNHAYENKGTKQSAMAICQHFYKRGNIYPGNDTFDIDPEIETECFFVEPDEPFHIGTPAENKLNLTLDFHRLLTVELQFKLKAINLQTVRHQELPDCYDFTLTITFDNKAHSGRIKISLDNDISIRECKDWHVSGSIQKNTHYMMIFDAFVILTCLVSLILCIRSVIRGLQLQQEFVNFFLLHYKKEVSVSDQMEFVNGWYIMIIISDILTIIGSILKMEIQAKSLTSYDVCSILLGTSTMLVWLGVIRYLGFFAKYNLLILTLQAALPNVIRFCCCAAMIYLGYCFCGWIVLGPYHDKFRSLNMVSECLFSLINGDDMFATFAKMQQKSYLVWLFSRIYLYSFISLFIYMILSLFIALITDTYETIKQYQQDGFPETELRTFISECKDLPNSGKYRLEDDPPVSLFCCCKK
Ion channel NompC, sequence (Q7T1G6 whole entry): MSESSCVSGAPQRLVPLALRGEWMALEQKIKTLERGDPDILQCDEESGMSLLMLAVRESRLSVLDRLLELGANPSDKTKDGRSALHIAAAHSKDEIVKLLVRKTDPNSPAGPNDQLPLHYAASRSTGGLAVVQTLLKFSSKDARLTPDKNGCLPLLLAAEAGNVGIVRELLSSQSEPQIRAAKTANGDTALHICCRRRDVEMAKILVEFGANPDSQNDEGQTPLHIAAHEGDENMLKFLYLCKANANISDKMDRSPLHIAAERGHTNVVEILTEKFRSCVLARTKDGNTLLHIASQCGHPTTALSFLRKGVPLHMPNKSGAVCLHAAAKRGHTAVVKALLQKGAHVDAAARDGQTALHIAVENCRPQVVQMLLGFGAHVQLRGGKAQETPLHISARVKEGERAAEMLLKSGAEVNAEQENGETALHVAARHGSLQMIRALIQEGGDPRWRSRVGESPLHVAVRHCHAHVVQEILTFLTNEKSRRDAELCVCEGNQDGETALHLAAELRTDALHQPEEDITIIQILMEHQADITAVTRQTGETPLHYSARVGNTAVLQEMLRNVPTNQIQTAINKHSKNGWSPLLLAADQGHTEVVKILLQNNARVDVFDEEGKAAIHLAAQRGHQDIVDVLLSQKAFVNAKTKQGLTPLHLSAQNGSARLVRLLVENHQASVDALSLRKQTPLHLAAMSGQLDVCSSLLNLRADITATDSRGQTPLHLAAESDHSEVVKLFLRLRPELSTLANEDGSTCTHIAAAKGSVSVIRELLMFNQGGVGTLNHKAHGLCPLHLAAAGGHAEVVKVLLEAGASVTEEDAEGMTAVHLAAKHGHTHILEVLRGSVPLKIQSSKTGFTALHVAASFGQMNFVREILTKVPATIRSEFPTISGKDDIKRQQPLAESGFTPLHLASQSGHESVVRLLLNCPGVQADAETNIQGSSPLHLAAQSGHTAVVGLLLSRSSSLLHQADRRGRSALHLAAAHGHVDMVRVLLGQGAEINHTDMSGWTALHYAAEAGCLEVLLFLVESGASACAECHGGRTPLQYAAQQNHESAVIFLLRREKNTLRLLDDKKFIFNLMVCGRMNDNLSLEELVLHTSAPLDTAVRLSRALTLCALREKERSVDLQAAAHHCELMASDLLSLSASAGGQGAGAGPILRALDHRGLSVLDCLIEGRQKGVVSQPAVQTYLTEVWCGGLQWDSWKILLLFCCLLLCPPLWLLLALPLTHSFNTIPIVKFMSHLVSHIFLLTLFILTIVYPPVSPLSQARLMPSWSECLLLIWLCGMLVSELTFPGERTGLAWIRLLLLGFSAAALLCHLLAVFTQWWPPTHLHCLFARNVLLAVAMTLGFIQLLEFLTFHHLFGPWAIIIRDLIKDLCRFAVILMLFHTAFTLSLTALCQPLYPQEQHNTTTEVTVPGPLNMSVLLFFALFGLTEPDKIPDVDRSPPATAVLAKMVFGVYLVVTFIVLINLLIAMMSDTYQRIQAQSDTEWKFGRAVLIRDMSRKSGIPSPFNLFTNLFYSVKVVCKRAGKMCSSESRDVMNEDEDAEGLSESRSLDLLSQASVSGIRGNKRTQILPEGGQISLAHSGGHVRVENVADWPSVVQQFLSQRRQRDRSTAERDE
Long-chain-fatty-acid--AMP ligase FadD28, sequence (P9WQ59 whole entry): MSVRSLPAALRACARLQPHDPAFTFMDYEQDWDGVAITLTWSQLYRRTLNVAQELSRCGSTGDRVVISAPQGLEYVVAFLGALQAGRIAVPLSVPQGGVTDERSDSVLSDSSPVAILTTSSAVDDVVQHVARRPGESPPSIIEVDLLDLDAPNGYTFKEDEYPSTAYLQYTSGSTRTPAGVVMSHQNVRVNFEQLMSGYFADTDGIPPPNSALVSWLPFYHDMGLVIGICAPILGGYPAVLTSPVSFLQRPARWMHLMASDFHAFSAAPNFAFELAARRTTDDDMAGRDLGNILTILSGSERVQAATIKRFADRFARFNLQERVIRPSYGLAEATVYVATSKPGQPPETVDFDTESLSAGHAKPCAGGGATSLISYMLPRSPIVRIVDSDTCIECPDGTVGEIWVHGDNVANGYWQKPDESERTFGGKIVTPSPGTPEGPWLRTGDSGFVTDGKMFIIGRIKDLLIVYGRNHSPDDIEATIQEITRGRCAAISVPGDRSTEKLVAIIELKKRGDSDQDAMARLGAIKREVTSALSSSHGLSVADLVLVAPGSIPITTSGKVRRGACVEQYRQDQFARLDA
Beta Lactamase, sequence (Q932Y6 whole entry): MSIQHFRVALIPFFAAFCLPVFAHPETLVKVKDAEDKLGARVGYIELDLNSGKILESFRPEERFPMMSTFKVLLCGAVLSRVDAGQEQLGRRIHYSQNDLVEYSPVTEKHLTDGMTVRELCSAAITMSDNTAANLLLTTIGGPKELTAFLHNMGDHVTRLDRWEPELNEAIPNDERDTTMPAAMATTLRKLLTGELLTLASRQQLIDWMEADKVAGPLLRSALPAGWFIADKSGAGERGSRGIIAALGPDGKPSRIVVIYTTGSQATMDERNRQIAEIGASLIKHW
Paired box protein Pax-8, sequence (Q06710 whole entry): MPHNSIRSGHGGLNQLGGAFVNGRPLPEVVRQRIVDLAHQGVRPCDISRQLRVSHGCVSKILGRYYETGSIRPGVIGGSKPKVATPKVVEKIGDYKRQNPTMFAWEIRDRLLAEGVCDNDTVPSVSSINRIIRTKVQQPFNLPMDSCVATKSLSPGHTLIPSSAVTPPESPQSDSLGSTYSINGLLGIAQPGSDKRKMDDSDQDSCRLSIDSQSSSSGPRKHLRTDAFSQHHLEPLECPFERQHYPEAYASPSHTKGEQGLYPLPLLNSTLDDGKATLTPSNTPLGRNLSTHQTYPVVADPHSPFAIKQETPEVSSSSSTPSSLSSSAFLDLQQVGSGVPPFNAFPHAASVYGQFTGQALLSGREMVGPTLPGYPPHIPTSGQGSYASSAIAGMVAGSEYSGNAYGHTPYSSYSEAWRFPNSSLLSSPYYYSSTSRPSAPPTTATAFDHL
NS3, sequence (A3EZJ3 whole entry): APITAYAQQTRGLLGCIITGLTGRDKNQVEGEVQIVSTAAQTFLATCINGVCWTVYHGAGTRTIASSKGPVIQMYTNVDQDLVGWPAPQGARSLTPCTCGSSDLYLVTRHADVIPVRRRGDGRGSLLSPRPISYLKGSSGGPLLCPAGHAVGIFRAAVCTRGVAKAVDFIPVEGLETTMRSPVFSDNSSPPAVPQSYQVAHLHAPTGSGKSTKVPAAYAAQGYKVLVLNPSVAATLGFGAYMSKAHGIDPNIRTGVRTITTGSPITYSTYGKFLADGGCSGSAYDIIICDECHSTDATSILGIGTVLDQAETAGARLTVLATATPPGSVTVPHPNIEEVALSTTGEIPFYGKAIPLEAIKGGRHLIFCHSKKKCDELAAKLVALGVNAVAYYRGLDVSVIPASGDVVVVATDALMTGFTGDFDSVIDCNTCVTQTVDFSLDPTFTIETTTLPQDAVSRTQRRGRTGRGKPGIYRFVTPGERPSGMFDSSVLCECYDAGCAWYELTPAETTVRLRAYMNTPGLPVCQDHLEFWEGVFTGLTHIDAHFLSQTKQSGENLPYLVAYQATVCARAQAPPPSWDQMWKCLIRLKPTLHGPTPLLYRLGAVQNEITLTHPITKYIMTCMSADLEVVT

## CCC1=NN2C(=N)/C(=C\c3cccn3-c3c(C)cccc3C)C(=O)N=C2S1
[1]
  CC50: 19.5 µM (active)
[2]
  IC50: 38.4 µM (active)
[3]
  AC50: > 100 µM (inactive)
Cells [4]
  IC50: 20.7 µM (active)

## CCC(C(=O)O)n1nnc(-c2ccc(-c3ccc(OC)cc3)cc2)n1 (stereo not drawn)
NS3
  IC50: 8.42 µM (active)

## COC(=O)c1cc(-c2ccc(S(=O)(=O)N3CCCCC3)cc2)c(C(F)(F)F)s1
Mucolipin-3
  EC50: > 29.9 µM (not active)
Ion channel NompC
  EC50: > 29.9 µM (not active)

## COc1cc(OC)nc(-n2ncc(Br)c(Br)c2=O)n1
HeLa
  CC50: > 1.22 µM (not active)
[5]
  CC50: 1.98 µM (active)
[6]
  EC50: < 59 nM (active)
[7]
  EC50: < 59 nM (active)
[8]
  CC50: 402 nM (active)
[9]
  CC50: 1.36 µM (active)
Cells [10]
  IC50: 6.73 µM (active)
CHO
  IC50: 546 nM (active)
Beta Lactamase
  IC50: > 49.7 µM (inactive)
INS1
  AC50: 6.03 µM (active)
[11]
  IC50: 1.18 µM (active)
[12]
  IC50: 2.69 µM (active)
Paired box protein Pax-8
  AC50: 2.66 µM (active)
[13]
  AC50: 20.6 µM (active)

## Cc1ccc(C)n1-c1ccc(C(=O)O)c(Cl)c1
Bcl-2-like protein 10
  EC50: 9.96 µM (active)

## O=C(C1CCN(Cc2ccc(Cl)cc2)CC1)N1CCN(C(c2ccccc2)c2ccccc2)CC1
[14]
  IC50: > 35 µM (not active)
[15]
  IC50: > 35 µM (not active)

## CC(Oc1ccc(Cl)cc1Cl)C(=O)Nc1ccc2oc(-c3ccncc3)nc2c1 (stereo not drawn)
[16]
  EC50: 8.75 µM (active)
Streptokinase A
  EC50: > 150 µM (not active)
Estrogen receptor
  EC50: 11.4 µM (active)
Streptococcus
  EC50: 9.54 µM (active)

From ChEMBL document CHEMBL1201862, “PubChem BioAssay data set” (2004)
